The text below walks through data of patent US20070203126A1, “Synergistic Mixtures of O-Phenylphenol and Dazomet” (priority 2002, published 2007).

Assay [1] concerns mixed inoculum of bacteria. The assay can be described thus: microtiter plate MIC and combination (K value) test in nutrient broth. The assay is classed as cell-based. Particulars: 24 hours, read-out: MIC RESULTS against mixed inoculum of bacteria. The method, then:
EQUIPMENT used for the experiment are as follows: • 1. Incubator capable of maintaining a variable temperature range (25-45 C.); • 2. Samples of each biocide or test compound to be examined; • 3. Microtiter plates—96 well with lid, sterile; • 4. 8-12 channel micropipetting device capable of pipetting 0-250 ul volumes; • 5. Micropipette tips capable of holding up to 250 ul volumes; • 6. Sterile microbiological culture broth. Trypticase Soy Broth (TSB) or Nutrient Broth (NB) is recommended for bacteria and Sabouraud Maltose Broth (SMB) or Sabouraud Dextrose Broth (SDB) is recommended for yeasts and molds. In the case of this particular study the microbiological culture medium was Nutrient Broth at pH 7.0, 8.0 and 9.0; • 7. Pure cultures of microorganisms of choice grown on appropriate agar medium; • 8. Sterile distilled water; • 9. 100 mL volumetric flasks (one for each biocide to be tested); • 10. Sterile 10 mL tubes of Phosphate buffer (Butterfield's buffer pH 7.2+/−0.2). Contains purified water, monobasic potassium phosphate and sodium hydroxide for pH adjustment; • 11. Sterile cotton swabs; • 12. 0.5 MacFarland Turbidity Standard;
Preparation of Bacterial Inocula
The day before testing, perform a streak plate of each organism to be tested on an appropriate agar medium (Trypticase Soy Agar). Organisms tested in this study were.
Wild strain bacteria isolated from previously contaminated industrial systems and which were identified as: Pseudomonas sp., Escherchia coli, Enterobacter sp., Alcaligenes sp. and Alcaligenes faecalis. On the day of the test, use a sterile cotton swab to harvest some of the growth. Place swab into a tube containing 10 mL sterile phosphate buffer. Compare and adjust the turbidity of the organisms in the tube to 1×10^8 cfu/mL using a 0.5 MacFarland Turbidity Standard. Dilute the 10 mL tube into 90 mL of sterile 2× nutrient broth at pH 7.0, 8.0 and 9.0.
The following procedure was used: • 1. Design the layout of the microtiter plates based on the number of organisms to test and the number of biocides and desired concentrations to test. A separate microtiter plate is required for testing each biocide alone, in addition to the combination microtiter plate. • 2. Prepare a working stock solution of each biocide to be tested. For the combination microtiter plate, the working stock solution of Biocide A will be 8× the concentration desired in the first well of the combination microtiter plate. The working stock solution of Biocide B will be 4× the concentration desired in the first well of the combination microtiter plate. For the alone microtiter plates, the working stock solutions of Biocide A and Biocide B will both be 4× the concentration desired in the first well of the single biocide microtiter plates.
Tetrahydro-3-5-dimethyl-2H-1,3-5-thiadiazine-2-thione (Dazomet): (For combination plates) A solution of this product, which is 99% active, was made as follows: […]=8000 ppm active=8000/0.99=8080 ppm, 0.8 g into 100 mL MeOH and sterile diH2O.
o-Phenylphenol (OPP): (For combination plates) Make a solution of this product which is 99% active, 4×125=500 ppm active=500/0.99=505 ppm, 0.05 g into 100 mL MeOH and sterile diH2O. Level to test is 125 ppm.
(For alone plates) A solution was made as follows: 4×4000=16000 ppm active=16000/0.99=16161 ppm, 1.6 into 100 mL MeOH and sterile diH2O. Levels to test are: 4000 ppm, 2000 ppm, 1000 ppm, 500 ppm, 250 ppm, 125 ppm, 62.5 ppm, 31.2 ppm, 15.6 ppm, 7.8 ppm, 3.9 ppm, 1.95 ppm • 3. Place 50 ul of sterile distilled water in all of the rows in columns 1 through 10, and 100 ul of sterile distilled water in all of the rows in columns 11 and 12 of the 96 well combination microtiter plate. Place 100 ul of sterile distilled water in each well of the 96 well alone microtiter plates. • 4. For the combination microtiter plate, place 50 ul of the Biocide A stock solution into all of the rows in column 1 of the combination microtiter plate. • 5. […]

The subject of assay [2] is artificial bacterial consortium containing approximately equal numbers of six bacterial strains. The assay can be described thus: bacterial growth inhibition dose protocol in synthetic white water (O.D. 650 nm, 4 hours). Type of assay: cell-based. Particulars: for Synergy Index: Dazomet & NaOPP, end point 50% inhibition, SI<1 synergism. The method, then: The actives were evaluated in synthetic white water with pH values of 5.5 and 8.0. The materials were tested against an artificial bacterial consortium containing approximately equal numbers of six bacterial strains. […] Two of the strains were Kiebsiella pneumoia (ATCC 13883) and Pseudomonas aeruginosa (ATCC 15442). The other four strains were isolated from papermill systems and have been identified as Curtobacterium flaccumfaciens, Burkhlderia cepacia, Bacillus maroccanus, and Pseudomonas glethei. Each strain was inoculated at 37° C. overnight, then suspended in sterile saline. Equal volumes of each strain were then combined to prepare the consortium. The bacterial consortium was distributed into the wells of a microtiter plate in the presence or absence of various concentrations of the active materials. The microtiter plates were incubated at 37° C. Optical density (O.D.) readings at 650 nm were taken initially (t0) and after time 4 hours (t4) of incubation.
The raw data was converted to “bacterial growth inhibition percentages” according to the following formula: % Inhibition=[(a−b)÷a]·100 […]
a=(O.D. of control at tn)−(O.D. of control at t0) b=(O.D. of treatment at tn)−(O.D. of treatment at t0)
The inhibition values can be plotted versus dosage for each active and the particular blend. […] The synergism index (SI) was calculated by the equations described by F. C. Kull, P. C. Eisman, H. D. Sylwestrowicz, and R. L. Mayer (1961), Applied Microbiology 9, 538-541. The values are based on the amount needed to achieve a specified end point. […] Synergy Index (SI)=(QA÷Qa)+(QB÷Qb) […]
QA=quantity of compound A in mixture, producing the end point
Qa=quantity of compound A1 acting alone, producing the end point
QB=quantity of compound B in mixture, producing the end point
Qb=quantity of compound B1 acting alone, producing the end point
If SI is less than 1, synergism exists; if SI is greater than 1, antagonism exists, if SI is equal to 1, an additive effect exists.

Where two headings read alike, the source gives them in different places.

Regarding `CN1CSC(=S)N(C)C1` [Dazomet, tetrahydo-3,5-dimethyl-2H-1-3-5-thiadiazine-2-thione], the MIC worked out at 2000 mg/L in assay [1] (pH 7.0, biocide alone); 2000 mg/L in assay [1] (pH 8.0, biocide alone); 4000 mg/L in assay [1] (pH 9.0, biocide alone). The “Synergy Index” value in assay [2] (pH 5.5) and in assay [2] (pH 8.0) was 1.00 in each case. In assay [2] (pH 5.5, Dazomet alone or in blend with NaOPP giving 50% inhibition, ppm active), the “ppm Dazomet” value came out at 6.176 ppm. For the same compound, the “Ppm Dazomet” value in assay [2] (pH 8.0, Dazomet alone or in blend with NaOPP giving 50% inhibition, ppm active) worked out at 5.34 ppm.
Consider `Oc1ccccc1-c1ccccc1` [OPP, o-Phenylphenol], for which the MIC in assay [1] (pH 7.0, biocide alone) was 2000 mg/L; in assay [1] (pH 8.0, biocide alone) it was 1000 mg/L; in assay [1] (pH 9.0, biocide alone), 500 mg/L.

By MIC is commonly meant the least concentration at which growth counts as inhibited.
